Data reported in patent US7122360B1, “Polypeptides, polynucleotides and uses thereof” (University of Dundee, priority 1998, dated 2006).
Entries after “also recorded” stand apart in the source; their conditions may differ.

Tests used:
[1] = system: MSK1; assay: Activation of endogenous MSK1 in 293 cells (immunoprecipitation and Crosstide assay); assay type: cell-based, human; conditions: for activation of MSK1 by EGF and TPA: 50 μM PD 98059 or 10 μM SB 203580, 1 h
[2] = system: CREB and ATF1; assay: Phosphorylation of CREB (Ser133) and ATF1 (Ser63) in 293 cells, immunoblot; assay type: cell-based, human; conditions: for EGF-induced CREB phosphorylation: 5 μM Ro 318220, 10 μM SB 203580, 50 μM PD 98059, EGF 100 ng/ml; for UV radiation-induced phosphorylation of CREB and ATF1: 5 μM Ro 318220, 10 μM SB 203580, 50 μM PD 98059
Procedure: FIG. 10. […] 293 cells were pre-treated either in the presence or absence of 5 μM Ro 318220 (Ro), 10 μM SB 203580 (SB), 50 μM PD 98059 (PD), and then exposed to either (A, D) UV radiation (200 J/m^2, 30 min and then 30 min at 37° C.) (B, E) EGF (100 ng/ml, 15 min), (C) forskolin (20 μM, 15 min). The cells were lysed and proteins were separated on 10% acrylamide gels and immunoblotted using a phosphospecific antibody that recognised both CREB and ATF1 when phosphorylated on Ser133 and Ser63 respectively. The position of CREB and ATF1 on the blots is indicated.
(§1) Immunoblotting for phosphorylated CREB and ATF1. Cell extracts were prepared and immunoblotting of these carried out as described (Tan et al., 1996) using a phosphospecific antibody recognizing CREB phosphorylated on Ser 133 and ATF1 phosphorylated on Ser63 purchased from UBI (Lake Placid, USA). Detection of phosphorylated CREB and ATF1 proteins was performed using the enhanced chemiluminescence reagent (Amersham).

[3] = system: CREB; assay: NGF-induced phosphorylation of CREB in PC12 cells; assay type: cell-based; conditions: 50 μM PD 98059, 10 μM SB 203580, 5 μM Ro 318220, NGF 30 ng/ml 15 min
Procedure: as §1

[4] = system: MSK1; assay: Arsenite and FGF-induced activation of MSK1 in SK-N-MC cells; assay type: cell-based; conditions: for FGF-induced activation of MSK1: 50 μM PD 98059, 10 μM SB 203580, FGF 50 ng/ml 15 min
Procedure: (§2) FIG. 14. […] After cell lysis aliquots were assayed for either MSK1 (A), MAPKAP-K1 (B), MAPKAP-K2 (C) after their immunoprecipitation from the lysates or immunoblotted for phosphorylation of CREB and ATF1 (D).
Cell Culture, stimulation and cell lysis.

[5] = system: CREB; assay: Arsenite and FGF-induced phosphorylation of CREB in SK-N-MC cells; assay type: cell-based; conditions: for FGF-induced phosphorylation of CREB: 50 μM PD 98059, 10 μM SB 203580, FGF 50 ng/ml 15 min
Procedure: as §2, §1

[6] = system: COX-2 protein; assay: Induction of COX-2 protein in RAW 264 macrophages, immunoblot; assay type: cell-based, mouse; conditions: LPS 100 ng/ml 4 h, 50 TM PD 98059, 10 TM SB 203580, 5 TM Ro 318220
Procedure: FIG. 20. […] (A) Macrophages were stimulated for the times indicated with LPS (100 ng/ml).
FIG. 22. […] (A) Macrophages were stimulated for 1 h with LPS (100 ng/ml) or for 15 min with forskolin (F) (20 TM) plus IBMX (10 TM). After cell lysis, aliquots of the lysate (30 Tg protein) were immunoblotted with a phospho-specific CREB antibody (see legend to FIG. 19 for details and molecular mass markers). (B) Macrophages were stimulated for 3 h with LPS (100 ng/ml), or forskolin (20 TM) plus IBMX (10 TM), and immunoblotting performed with a specific COX-2 antibody (materials & methods section). The marker proteins are as in FIG. 19.
(§3) Cell culture and stimulation. RAW 264 macrophages were maintained in a 95% air/5% CO2 atmosphere in Dulbecco's modified Eagle's medium (DMEM) plus 10% (v/v) heat-inactivated foetal calf serum, 100 U/ml penicillin, […] streptomycin. The day before stimulation, the macrophages were plated at a density of 2×10^6 cells per 6 cm plate and 2 h before stimulation, the medium removed and replaced with 2 ml of DMEM. Where indicated, […] (10 TM) and/or PD 98059 (50 Tm), or U0126 (10 TM) or Ro 318220 (5 TM), were added 1 h before stimulation.
Immunoblotting. For immunoblotting of CREB, nuclear cell extracts were prepared as described and immunoblotting performed using a phospho-specific antibody recognising CREB phosphorylated on Ser 133 and ATF1 phosphorylated on Ser 63. For immunoblotting of COX-2, cell lysate (30 Tg protein) was denatured in SDS, electrophoresed on 10% polyacrylamide gel, transferred to a nitrocellulose membrane, and immunoblotted with anti-COX-2 antibody (1.0 mg/ml). Detection of phosphorylated CREB and ATF1 and COX-2 was performed using the enhanced chemiluminescence reagent (ECL).

[7] = system: HPRT mRNA; assay: HPRT housekeeping gene mRNA in RAW 264 macrophages, RT-PCR; assay type: cell-based, mouse; conditions: PD 98059 (50 TM), SB 203580 (10 TM), Ro 318220 (5 TM)
Procedure: FIG. 21. Effect of PD 98059 and SB 203580 on gene transcription in RAW 264 macrophages. (A) Cells were stimulated for the times indicated with LPS (100 ng/ml). Total RNA was extracted at each time point and mRNA encoding IL-1, COX-2 and HRPT was determined using the reverse transcriptase polymerase chain reaction (Section 2.6). (B) As in A, except that the macrophages were incubated for 1 h in the presence or absence of PD 98059 (50 TM) and/or SB 203580 (10 TM), or Ro 318220 (5 TM), then stimulated for 3 h in the absence or presence of LPS, and in the continued presence or absence of the inhibitors. RTPCR was performed using oligonucleotides encoding fragments of IL-1, COX-2 and HPRT.
as §3
Reverse transcripts polymerase chain reactions. Total RNA was prepared from LPS-stimulated or control RAW 264 cells using the Rneasy Mini Kit according to the manufacturer's protocol. Total RNA was measured and 100 ng was reverse transcribed using Promega AMV reverse transcriptase (5 U/ml) with the oligonucleotides […] and […] TGA (coding for the IL-1 gene) and […] and […] (coding for the COX-2 gene). Conditions for PCR amplification of the resulting first-stand DNA template were 94° C. denaturing for 30 sec, 60° C. annealing for 1 min, 68° C. extension for 1 min, 30 cycles using thermostable Tf1 DNA polymerase (SU/ml), and 1 mM MgSO4.

[8] = system: HSP27; assay: UV induced phosphorylation of HSP27 in 293 cells; assay type: cell-based, human; conditions: UV 200 J/m^2
Procedure: FIG. 9. Effect of Ro 318220 on the activity of MSK1. (A) Effect of Ro 318220 on GST-MSK1 (closed circles), mixed PKC isoforms (open circles) GST-MAPKAP-K1b and MAPKAP-K2 (open triangles) in vitro. […] The error for each point is ±10%. […] The cells were lysed MAPKAP-K2 was immunoprecipitated and assayed. […] (C) as above except that 293 cells were incubated for 2 h in 32phosphate (0.1 mCi/ml) before treatment with inhibitors. Cells were then exposed to either UV radiation (200 J/m2) or left untreated (−), incubated for a further 20 min in the continued presence of inhibitors. Following cell lysis, HSP27 was immunoprecipitated from cell extracts (Cuenda et al., 1995) run on a 15% polyacrylamide gel and autoradiographed.

[9] = 50 μM PD 98059, 10 μM SB 203580, arsenite 0.5 mM 15 min

Row | Structure (SMILES) | activation of MSK1 by EGF and TPA [1] | EGF-induced CREB phosphorylation [2] | NGF-induced phosphorylation of CREB [3] | FGF-induced activation of MSK1 [4] | FGF-induced phosphorylation of CREB [5] | LPS-stimulated induction of COX-2 protein [6] | mRNA encoding the housekeeping gene HPRT [7] | activation of MSK1 by stressful stimuli ([1]; sodium arsenite, UV radiation or H2O2, 50 μM PD 98059 or 10 μM SB 203580) | UV induced phosphorylation of HSP27 [8] | UV radiation-induced phosphorylation of CREB and ATF1 [2] | sodium arsenite-induced activation of MSK1 [4, 9] | sodium arsenite-induced activation of CREB [5, 9] | phosphorylation of CREB and ATF1 induced by forskolin ([2]; 5 μM Ro 318220, forskolin 20 μM, 15 min) | MSK1 activation in cells ([4]; 5 μM Ro 318220, inhibitor removed on immunoprecipitation) | phosphorylation of CREB at Ser133 ([5]; sodium arsenite or FGF, 5 μM Ro 318220)
1 | COc1cccc(-c2cc(=O)c3ccccc3o2)c1N [PD 98059] | largely prevented | prevented | not significantly affected | only partially suppressed | only inhibited slightly; also recorded: did not significantly suppress | partially inhibited | unaffected |  |  |  |  |  |  |  | 
2 | C[S+]([O-])c1ccc(-c2nc(-c3ccncc3)c(-c3ccc(F)cc3)[nH]2)cc1 (stereo not shown) [SB 203580] | but not by SB 203580 | not SB203580 | not significantly affected | only partially suppressed | only inhibited slightly | partially inhibited | unaffected | largely inhibited | blocked | inhibited | prevented | prevented |  |  | 
3 | Cn1cc(C2=C(c3cn(CCCSC(=N)N)c4ccccc34)C(=O)NC2=O)c2ccccc21 [Ro 318220] |  | largely inhibited | suppressed |  |  | suppresses | unaffected |  | did not significantly affect | largely inhibited |  |  | unaffected | does not affect MSK1 activation | largely suppressed
